Reference: PMC10035904, “Synthesis of novel sulphamethoxazole derivatives and exploration of their anticancer and antimicrobial properties” (PLOS ONE, 2023)
≈ marks a conversion by molar mass, not a printed value.

Experiments:
Type in all cases: cell-based
[1] = test system: Candida albicans ATCC 60193; test: Serial dilution on solid agar, C. albicans; conditions: ATCC60193, solid Mueller-Hinton agar, 24 hours
Method: (§1) Antimicrobial activity of compound 16b on solid agar was tested using the same microbial cultures, and the same suspension preparation procedure, as described in above section. All procedures were done in aseptic conditions.
(§2) Mueller-Hinton agar was boiled and kept at to 37 °C during the whole procedure. Compound 16b solution was prepared in DMSO right before experiment. The Agar was mixed with compound solution at different ratios to make the final compound concentrations of 1 mM, 400 μM, 200 μM and 100 μM. Then 10 ml of prepared solution was poured into sterile Petri dishes (85 mm in diameter) and kept in aseptic conditions while the agar solidified. The agar with 0.5% of DMSO served as a negative control. With the help of loop standard microbial cultures by 0.1 ml were poured on the surface of prepared agar with investigative compound. Then Petri dishes were kept for 24 hours in thermostatic conditions.
(§3) The minimal dilution, i.e. the lowest concentration in μg/mL of the investigative and comparison compounds that inhibited visible growth of microorganisms was the minimal inhibitory concentration (MIC).

[2] = test system: Staphylococcus aureus ATCC 25923; test: Serial dilution on solid agar, S. aureus; conditions: ATCC25923, solid Mueller-Hinton agar, 24 hours
Method: as §1, §2, §3

[3] = test system: Bacillus cereus ATCC 8035; test: Serial dilution on solid agar, B. cereus; conditions: ATCC8035, solid Mueller-Hinton agar, 24 hours
Method: as §1, §2, §3

[4] = test system: human prostate carcinoma cell line PPC-1; test: MTT cell viability assay, PPC-1; conditions: 72 hours of incubation, n = 3, read-out: EC50 against PPC-1
Method: (§4) The human clear cell renal cell carcinoma line (CaKi-1) was obtained from American Type Culture Collection (ATCC, Manassas, VA). The human prostate carcinoma cell line PPC-1 was originally obtained from ATCC and kindly provided by Prof. Tambet Teesalu (University of Tartu, Estonia). Human foreskin fibroblasts (HF) CRL-4001 were originally obtained from ATCC and kindly provided by Prof. Helder Santos (University of Helsinki, Finland). Cells were cultured in Dulbecco’s Modified Eagle’s GlutaMAX medium (Gibco (Carlsbad, CA, USA) supplemented with 10,000 U/mL penicillin, 10 mg/mL streptomycin (Gibco), and 10% fetal bovine serum (Gibco). During cell passaging, Tryple Express reagent (Gibco) was used for cell detachment. Cell cultures were grown at 37°C in a humidified atmosphere containing 5% CO2. They were used until the passage of 20.
(§5) The effect of synthesized compounds on cell viability was studied using 3-(4,5-dimethylthiazol-2-yl)-2,5-diphenyltetrazolium bromide (MTT; Sigma-Aldrich Co., St Louis, MO, USA) assay, as described elsewhere. […] The absorbance was measured at 570 and 630 nm using a multi-detection microplate reader. The compound effect on cell viability was calculated using a formula (1): Relativecellviability%=A−A0/ANC−A0 (1) Where: […]

[5] = test system: Enterococcus faecalis ATCC 29212; test: Serial dilution on solid agar, E. faecalis; conditions: ATCC29212, solid Mueller-Hinton agar, 24 hours
Method: as §1, §2, §3

[6] = test system: Staphylococcus aureus ATCC 25923; test: Serial broth dilution in liquid medium, S. aureus; conditions: Mueller-Hinton broth, 24 hours; result in words
Method: (§6) Antibacterial and antifungal susceptibility to the compound 16b was tested using a serial broth dilution technique in Mueller-Hinton broth II (BBL, Cockeysville, USA), as described elsewhere. All procedures were done in aseptic conditions. Standard bacterial and fungal cultures were used: Staphylococcus aureus ATCC 25923, Staphylococcus epidermidis ATCC 12228, Escherichia coli ATCC 25922, Enterococcus faecalis ATCC 29212, Klebsiella pneumoniae ATCC 33499, Pseudomonas aeruginosa ATCC 27853, Proteus mirabilis ATCC 12459, Bacillus cereus ATCC 8035, and Candida albicans ATCC 60193. Standard cultures of nonsporic bacteria S. aureus, S. epidermidis, E. coli, E. faecalis, K. pneumoniae, P. aeruginosa and P. mirabilis were cultivated for 20–24 hours at 37°C in Mueller-Hinton Agar (BBL, Cockeysville, USA). A bacterial suspension was prepared from cultivated bacterial cultures in physiological solution according to turbidity standard 0.5 McFarland. Standard culture of sporic bacteria B. cereus was cultivated for 7 days at 37°C in Mueller-Hinton II Agar. […] Then the absorbance was measured at 600 nm using a multi-detection microplate reader. […]

[7] = test system: Proteus mirabilis ATCC 12459; test: Serial dilution on solid agar, P. mirabilis; conditions: ATCC12459, solid Mueller-Hinton agar, 24 hours
Method: as §1, §2, §3

[8] = test system: human clear cell renal cell carcinoma line (CaKi-1); test: MTT cell viability assay, CaKi-1; conditions: 72 hours of incubation, n = 3, read-out: EC50 against CaKi-1
Method: as §4, §5

[9] = test system: Bacillus cereus ATCC 8035; test: Serial broth dilution in liquid medium, B. cereus; conditions: Mueller-Hinton broth, 24 hours; result in words
Method: as §6

[10] = test system: Proteus mirabilis ATCC 12459; test: Serial broth dilution in liquid medium, P. mirabilis; conditions: ATCC12459, Mueller-Hinton broth, 24 hours, n = 3
Method: as §6

- MIC [1]: 400 µM (≈ 185 µg/mL)
- MIC [2]: 100 µM (≈ 46.2 µg/mL)
- MIC [3]: 400 µM (≈ 185 µg/mL)
- EC50 [4]: 10.4 ± 3 µM
- MIC [5]: 1000 µM (≈ 462 µg/mL)
- MIC [7]: 1000 µM (≈ 462 µg/mL)
- EC50 [8]: 12.4 ± 1.6 µM
- EC50 [10]: > 100 µM
SMILES: Cc1cc(NS(=O)(=O)c2ccc(NCCC(=O)NN=Cc3ccc([N+](=O)[O-])o3)cc2)no1 [Compound 16b, N-(5-methylisoxazol-3-yl)-4-((3-(2-((5-nitrofuran-2-yl)methylene)hydrazineyl)-3-oxopropyl)amino)-benzenesulfonamide]
- sensitivity of S. aureus in liquid medium [6]: most sensitive
- sensitivity of B. cereus in liquid medium [9]: most sensitive
